Experimental data published in patent US9951079B2, “Fused tricyclic heterocyclic compounds as HIV integrase inhibitors” (MERCK SHARP & DOHME CORP., priority 2013, dated 2018).
pIC50: −log10 of the molar value. Where two headings read alike, the source gives them in different places.

Tested on: HIV-1 (NL4-3 strain)
Test: Assay for inhibition of HIV replication (MT4-gag-GFP reporter cell line, kinetic assay)
Format: cell-based
Procedure: This assay is a kinetic assay that employs a reporter cell line (MT4-gag-GFP) to quantify the number of new cells infected in each round of replication.
MT4-GFP cells (250,000 cells/ml) were bulk-infected with HIV-1 (NL4-3 strain) at low multiplicity of infection (MOI) in RPMI+10% FBS for 24 hours. Cells were then washed once in RPMI+10% FBS and resuspended in RPMI+0% or 10% or 100% normal human serum (NHS). Test compounds were serial-diluted in DMSO on ECHO. The infected MT4-GFP cells were added to a 384-well poly-D-lysine coated black plate with clear bottom in which the diluted test compounds were placed. The cells were seeded at 8,000 cells per well and the final DMSO concentration was 0.4%. The infected cells (Green GFP cells) were quantified at both 24 and 48 hours post incubation using Acumen eX3. Viral reproductive ratio (R0) was determined using the number of infected cells at 48 hours divided by the number of infected cells at 24 hours. Percent viral growth inhibition was calculated by [1−(R−Rtripledrug)/(RDMSO−Rtripledrug)]*100. Compound potency IP or IC50 was determined by a 4-parameter dose response curve analysis.

[1] = Human immunodeficiency virus 1, NL43, Table A, infected MT4-GFP cells, RPMI + 0% normal human serum, IP from 4-parameter dose response curve, read-out: Wild Type Cell Assay IP (0% NHS)
[2] = Human immunodeficiency virus 1, NL43, Table A, infected MT4-GFP cells, RPMI + 10% normal human serum, read-out: Wild Type Cell Assay IP (10% NHS)
[3] = Human immunodeficiency virus 1, NL43, Table B (selected enantiomeric compounds), 0% normal human serum, read-out: Wild Type Cell Assay IP (0% NHS)
[4] = Table A, infected MT4-GFP cells, RPMI + 10% normal human serum, read-out: Wild Type Cell Assay IP (10% NHS)
[5] = Table B (selected enantiomeric compounds), 100% normal human serum, read-out: Wild Type Cell Assay IP (100% NHS)
[6] = Table B (selected enantiomeric compounds), 0% normal human serum, read-out: Wild Type Cell Assay IP (0% NHS)

Question: `CCN1C(=O)c2c(O)c(=O)c(-c3nnc(Cc4ccc(F)cc4)s3)cn2C2COC[C@@H]21` (mixture of isomers) [Compound 7] was tested. Which pIC50 [1] did it give?
Answer: 7.44

Question: What about the pIC50 [2] of the same molecule?
Answer: 7.13

Question: Which results are given for `COCCN1C(=O)c2c(O)c(=O)c(-c3nnc(Cc4ccc(F)cc4F)s3)cn2C2COC[C@@H]21` (mixture of isomers) [Compound 8]?
Answer: pIC50 [1]: 8.22; pIC50 [2]: 7.89

Question: `CCCN1C(=O)c2c(O)c(=O)c(-c3nnc(Cc4ccc(F)cc4)s3)cn2C2COC[C@@H]21` (mixture of isomers) [Compound 9] was tested. Which pIC50 [1] did it give?
Answer: 8.00

Question: What about the pIC50 [2] of the same molecule?
Answer: 7.49

Question: `CCC(c1nnc(-c2cn3c(c(O)c2=O)C(=O)N(CC)[C@H]2COCC23)s1)c1ccc(F)cc1F` (mixture of isomers) [Compound 6] was tested. Which pIC50 [1] did it give?
Answer: 7.51

Question: What about the pIC50 [2] of the same molecule?
Answer: 7.17

Question: How did the pIC50 [1] turn out when `CC(C)N1C(=O)c2c(O)c(=O)c(C(=O)NCc3ccc(F)cc3F)cn2C2COC[C@@H]21` (mixture of isomers) [Compound 12] was run?
Answer: 8.52

Question: What about the pIC50 [2] of the same molecule?
Answer: 7.21

Question: With `O=C1N[C@@H]2COC[C@H]2n2cc(-c3nnc(Cc4ccc(F)cc4F)s3)c(=O)c(O)c21` (relative stereo) [Compound 2, trans-8-(5-(2,4-difluorobenzyl)-1,3,4-thiadiazol-2-yl)-6-hydroxy-3a,4-dihydro-1H-furo[3,4-e]pyrido[1,2-a]pyrazine-5,7(3H,10aH)-dione] as the molecule, how does the pIC50 [2] read?
Answer: 6.41

Question: `CCN1C(=O)c2c(O)c(=O)c(-c3nnc(Cc4ccc(F)cc4F)s3)cn2[C@@H]2COC[C@H]21` (relative stereo) [Compound 3, trans-8-(5-(2,4-difluorobenzyl)-1,3,4-thiadiazol-2-yl)-4-ethyl-6-hydroxy-3a,4-dihydro-1H-furo[3,4-e]pyrido[1,2-a]pyrazine-5,7(3H,10aH)-dione] was tested. Which pIC50 [2] did it give?
Answer: 7.24

Question: With `CCN1C(=O)c2c(O)c(=O)c(-c3cnn(Cc4ccc(F)cc4F)c3)cn2[C@@H]2COC[C@@H]21` (relative stereo) [Compound 14, cis-8-(1-(2,4-difluorobenzyl)-1H-pyrazol-4-yl)-4-ethyl-6-hydroxy-3a,4-dihydro-1H-furo[3,4-e]pyrido[1,2-a]pyrazine-5,7(3H,10aH)-dione] as the molecule, how does the pIC50 [1] read?
Answer: 7.29

Question: What about the pIC50 [2] of the same molecule?
Answer: 6.60

Question: Which results are given for `CCN1C(=O)c2c(O)c(=O)c(-c3nnc(Cc4ccc(F)cc4F)s3)cn2C2COC[C@@H]21` (single isomer, unassigned) [Compound 4, cis-8-(5-(2,4-difluorobenzyl)-1,3,4-thiadiazol-2-yl)-4-ethyl-6-hydroxy-3a,4-dihydro-1H-furo[3,4-e]pyrido[1,2-a]pyrazine-5,7(3H,10aH)-dione]?
Answer: pIC50 [3]: 8.10; pIC50 [4]: 7.77; pIC50 [5]: 6.72

Question: With `CCN1C(=O)c2c(O)c(=O)c(-c3nnc(Cc4ccc(F)cc4F)s3)cn2C2COC[C@@H]21` (single isomer, unassigned) [Compound 5, cis-8-(5-(2,4-difluorobenzyl)-1,3,4-thiadiazol-2-yl)-4-ethyl-6-hydroxy-3a,4-dihydro-1H-furo[3,4-e]pyrido[1,2-a]pyrazine-5,7(3H,10aH)-dione] as the molecule, how does the pIC50 [1] read?
Answer: 8.05

Question: What about the pIC50 [4] of the same molecule?
Answer: 6.25

Question: And the pIC50 [5]?
Answer: 5.24

Question: `CCN1C(=O)c2c(O)c(=O)c(C(=O)NCc3ccc(F)cc3F)cn2C2COC[C@@H]21` (single isomer, unassigned) [Compound 10, cis-N-(2,4-difluorobenzyl)-4-ethyl-6-hydroxy-5,7-dioxo-3,3a,4,5,7,10a-hexahydro-1H-furo[3,4-e]pyrido[1,2-a]pyrazine-8-carboxamide] was tested. Which pIC50 [1] did it give?
Answer: 8.40

Question: What about the pIC50 [4] of the same molecule?
Answer: 8.10

Question: What about the pIC50 [6] of the same molecule?
Answer: 7.10

Question: What about the pIC50 [5] of the same molecule?
Answer: 7.15

Question: How did the pIC50 (Table A, infected MT4-GFP cells, RPMI + 0% normal human serum, IP from 4-parameter dose response curve, read-out: Wild Type Cell Assay IP (0% NHS)) turn out when `CCN1C(=O)c2c(O)c(=O)c(C(=O)NCc3ccc(F)cc3F)cn2C2COC[C@@H]21` (single isomer, unassigned) [Compound 11, cis-N-(2,4-difluorobenzyl)-4-ethyl-6-hydroxy-5,7-dioxo-3,3a,4,5,7,10a-hexahydro-1H-furo[3,4-e]pyrido[1,2-a]pyrazine-8-carboxamide] was run?
Answer: 8.22

Question: And the pIC50 [4]?
Answer: 6.83

Question: What about the pIC50 [6] of the same molecule?
Answer: 7.42

Question: What about the pIC50 [5] of the same molecule?
Answer: 5.55

Question: `CCN1C(=O)c2c(O)c(=O)c(-c3cn(Cc4ccc(F)cc4F)nn3)cn2[C@@H]2COC[C@@H]21` (single isomer, unassigned) [Compound 15, cis-8-(1-(2,4-Difluorobenzyl)-1H-1,2,3-triazol-4-yl)-4-ethyl-6-hydroxy-3a,4-dihydro-1H-furo[3,4-e]pyrido[1,2-a]pyrazine-5,7(3H,10aH)-dione] was tested. Which pIC50 [1] did it give?
Answer: 7.10

Question: `CCN1C(=O)c2c(O)c(=O)c(-c3cn(Cc4ccc(F)cc4F)nn3)cn2C2COC[C@@H]21` (single isomer, unassigned) [Compound 16] was tested. Which pIC50 [1] did it give?
Answer: 7.42

Question: What about the pIC50 [3] of the same molecule?
Answer: 7.42

Question: And the pIC50 (Human immunodeficiency virus 1, NL43, Table B (selected enantiomeric compounds), 100% normal human serum, read-out: Wild Type Cell Assay IP (100% NHS))?
Answer: 5.57

Question: `O=C1N[C@H]2COCC2n2cc(-c3nnc(Cc4ccc(F)cc4F)s3)c(=O)c(O)c21` (stereo in doubt) [Compound 1, cis-8-(5-(2,4-difluorobenzyl)-1,3,4-thiadiazol-2-yl)-6-hydroxy-3a,4-dihydro-1H-furo[3,4-e]pyrido[1,2-a]pyrazine-5,7(3H,10aH)-dione] was tested. Which pIC50 [2] did it give?
Answer: 6.40

Question: With `CCN1C(=O)c2c(O)c(=O)c(C(=O)NCc3ccc(F)cc3F)cn2C2COC[C@H]21` (stereo partly shown) [Compound 13] as the molecule, how does the pIC50 [2] read?
Answer: 7.68
